# Source: article PMC10249896, “AI-Assisted chemical probe discovery for the understudied Calcium-Calmodulin Dependent Kinase, PNCK” (PLOS Computational Biology, 2023)
# Where “and” joins values, the source holds several entries; their conditions need not be identical. Equal entries are not always repeated. Where two headings read alike, the source gives them in different places.
# Key:
# [1] = molecular target: T1, PNCK Nano-luciferase fusion (Homo sapiens, UniProt Q6P2M8); assay: NanoBRET Target Engagement Intracellular Kinase Assay, cell-based PNCK binding screen and dose response in HEK293 cells
# T1 construct: host or cells: HEK293
# [2] = molecular target: T1, PNCK Nano-luciferase fusion; assay: as above; conditions: for IC50: 8-point concentration-response; for dose response raw signal: replicate values; for NanoBRET binding, result in words: cell-based screen / comparison with parent hit
# Protocol: The NanoBRET Target Engagement Intracellular Kinase Assay (Promega N2520) is a cell-based binding screen which reads loss of BRET signal as a result of target binding. A PNCK Nano-luciferase fusion vector plasmid was generated custom by Promega. The K-10 tracer was used for the assay, as determined by Promega. The plasmid was maxiprepped by Genewiz for use in all future assays. HEK293 cells were seeded in a T175 flask in DMEM with 10% FBS. The following day, cells were counted to 10,000, resuspended in assay media (Optimem with no phenol red, 1% FBS). Plasmid and transfection reagent (Fugene HD, Promega E2311) were added to the mixture and cells were seeded in a white 96-well plate. After 20–24 hours, media was changed, and the assay proceeded according to protocol. K10 tracer was added at the recommended concentration of 1uM while compounds were initially screened at both 10uM and 1uM. Cells incubated with compound at 37 degrees Celsius for a maximum of 2 hours before the plate was read using Clariostar Plus. Data was normalized to Staurosporine and DMSO controls. For compounds selected for further analysis, dose response curves were generated using the same testing protocol but at 8 different concentrations: 24uM, 12uM, 6uM, 3uM, 1.5uM, .75uM 0.375uM and 0.1875uM. UM195 was tested with concentrations from 12uM to 0.09375. Similarly, compounds from the analog by catalog analysis were tested at concentrations from 24uM to 0.1875uM.
# (§1) Data analysis of ADP Kinase Glo results were carried out per the manufacturer’s instructions. Results were represented as a percent decrease in activity. Data was normalized to staurosporine (positive control) as 100% decrease and DMSO (negative control) as a 0% decrease. Data for NanoBRET was analyzed by dividing the acceptor by the donor emission and […] to obtain raw millibret units (mBU). Background was subtracted using control emission averages. Data was normalized to positive and negative controls of staurosporine and DMSO. Concentration-response curves were plotted in GraphPad Prism 8 and IC50s were extrapolated using non-linear fit with concentrations transformed to logarithmic scale. Baseline was held constant and represented the average mBU of staurosporine controls while the top was constrained to represent the average mBU of DMSO controls. Error bars on dose-response curves represent standard deviations.
# [3] = Aqueous solubility observed on testing; format: physicochemical; conditions: stated on testing
# [4] = molecular target: T2, GST-tagged PNCK recombinant protein (Homo sapiens, UniProt Q6P2M8); assay: ADP-Glo Kinase Assay, biochemical PNCK inhibitor screen; conditions: for inhibition at 10 µM: read-out: Avg. Normalized % Inhibition, 10uM, ADP Kinase Glo
# T2 construct: GST; purchased Novus NBP1-99886
# Protocol: ADP-Glo Kinase Assay (V6930, Promega) was used to screen the first round of compounds against PNCK. […] Autocamtide-II (GenScript RP10271) was used as the peptide substrate. This peptide was dissolved in water and prepared immediately prior to the assay. Calcium/Calmodulin 10X (Abcam ab189137) solution was used to create a custom kinase buffer: 40mM Tris,pH 7.5; 20mM MgCl2; 0.1mg/ml BSA; 50μM DTT and Ca2+/Calmodulin solution (0.03μg/μl, Calmodulin, 1mM Tris,pH 7.3, 0.5mM CaCl2). […] A standard curve was then done to determine the amount of protein needed to generate a signal in the linear range of the ATP curve. 100ng of PNCK and 2ng of substrate was used per well in the 96-well plate format of this assay. […] Plates were read using the Clariostar Plus. Data was normalized to a DMSO and staurosporine controls.
# as §1
# [5] = compound 1uM, HEK293, K10 tracer 1uM, normalized to staurosporine and DMSO, read-out: Avg. Normalized % Inhibition, 1uM, Nanobret
# [6] = compound 10uM, HEK293, K10 tracer 1uM, normalized to staurosporine and DMSO, read-out: Avg. Normalized % Inhibition, 10uM, Nanobret
# [7] = compound 10uM, 25uM ATP, normalized to DMSO and staurosporine controls
# T1 sequence (Q6P2M8 whole entry, the tested form may be a part): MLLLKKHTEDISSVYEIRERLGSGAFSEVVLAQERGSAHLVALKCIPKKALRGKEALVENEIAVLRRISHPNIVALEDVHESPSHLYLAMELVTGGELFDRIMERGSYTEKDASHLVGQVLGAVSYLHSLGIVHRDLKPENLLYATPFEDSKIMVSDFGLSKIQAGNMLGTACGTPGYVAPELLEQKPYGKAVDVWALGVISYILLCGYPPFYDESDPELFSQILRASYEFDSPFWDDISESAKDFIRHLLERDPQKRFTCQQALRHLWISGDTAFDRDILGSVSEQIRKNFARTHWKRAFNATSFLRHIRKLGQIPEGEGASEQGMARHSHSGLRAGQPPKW
structure (smiles),measurement,setting,value
O=C1CN(C(=O)COc2ccc3c4c(c(=O)oc3c2)CCCCC4)CCN1 [UM_259],dose response raw signal,"[1]; Concentration (M) 2.00E-05, replicate values",4.80 and 4.22 and 5.32 and 4.30
same,IC50,[2]; HEK293,2900 nM
same,dose response raw signal,[2]; Concentration (M) 1.00E-05,4.13 and 4.39 and 5.19 and 4.12
same,dose response raw signal,[2]; Concentration (M) 1.25E-06,5.91 and 7.63 and 6.69 and 6.36
same,dose response raw signal,[2]; Concentration (M) 1.56E-07,7.98 and 8.01 and 8.32 and 8.22
same,dose response raw signal,[2]; Concentration (M) 2.50E-06,4.91 and 6.63 and 5.69 and 5.36
same,dose response raw signal,[2]; Concentration (M) 3.13E-07,8.79 and 8.75 and 7.57 and 7.89
same,dose response raw signal,[2]; Concentration (M) 5.00E-06,4.98 and 5.24 and 5.45 and 6.11
same,dose response raw signal,[2]; Concentration (M) 6.25E-07,8.89 and 8.75 and 7.37 and 7.79
same,"NanoBRET binding, result in words",[2],higher affinity for PNCK than the parent
same,inhibition at 1 µM,[2]; [5],27.5%
same,inhibition at 10 µM,[2]; [6],84.1%
COC(=O)c1cnc(Sc2nnc(-c3cccc4ccccc34)o2)cn1 [UM_254],"Dose-Response Curve Data (NanoBRET signal, replicates)",[1]; Concentration 1.00E-05 M,5.13 and 5.39 and 6.19 and 4.97
same,"Dose-Response Curve Data (NanoBRET signal, replicates)",[1]; Concentration 1.56E-07 M,8.00 and 8.01 and 8.11 and 8.38
same,"Dose-Response Curve Data (NanoBRET signal, replicates)",[1]; Concentration 3.13E-07 M,8.00 and 8.43 and 7.99 and 7.89
same,IC50,[2]; HEK293,2680 nM
same,"Dose-Response Curve Data (NanoBRET signal, replicates)",[2]; Concentration 1.25E-06 M,7.15 and 8.63 and 7.69 and 7.36
same,"Dose-Response Curve Data (NanoBRET signal, replicates)",[2]; Concentration 2.00E-05 M,4.80 and 4.63 and 5.32 and 4.99
same,"Dose-Response Curve Data (NanoBRET signal, replicates)",[2]; Concentration 2.50E-06 M,7.32 and 7.44 and 7.90 and 7.31
same,"Dose-Response Curve Data (NanoBRET signal, replicates)",[2]; Concentration 5.00E-06 M,6.60 and 7.13 and 7.18 and 7.54
same,"Dose-Response Curve Data (NanoBRET signal, replicates)",[2]; Concentration 6.25E-07 M,7.54 and 7.48 and 8.39 and 8.00
same,inhibition at 1 µM,[2]; [5],16.1%
same,inhibition at 10 µM,[2]; [6],68.2%
Oc1c(/C=N/c2ccc(Br)cn2)sc2ccccc12 [UM_234],aqueous solubility,[3],poor aqueous solubility
same,inhibition at 1 µM,[2]; [5],5.92%
same,inhibition at 10 µM,[2]; [6],17.1%
CC1CCc2c(sc(NC(=O)CSc3ncc(-c4ccc(F)cc4)[nH]3)c2C(N)=O)C1 (stereo not drawn) [UM_252],"Dose-Response Curve Data (NanoBRET signal, replicates)",[1]; Concentration 1.00E-05 M,5.51 and 5.44 and 5.21 and 5.32 and 4.78
same,"Dose-Response Curve Data (NanoBRET signal, replicates)",[1]; Concentration 1.56E-07 M,6.58 and 6.82 and 6.54 and 7.24 and 6.53
same,"Dose-Response Curve Data (NanoBRET signal, replicates)",[1]; Concentration 3.13E-07 M,6.79 and 6.18 and 7.47 and 6.16 and 7.19
same,IC50,[2]; HEK293,1090 nM
same,"Dose-Response Curve Data (NanoBRET signal, replicates)",[2]; Concentration 1.25E-06 M,5.69 and 4.76 and 5.57 and 5.29 and 6.48
same,"Dose-Response Curve Data (NanoBRET signal, replicates)",[2]; Concentration 2.00E-05 M,4.90 and 5.31 and 5.12 and 5.26 and 5.44
same,"Dose-Response Curve Data (NanoBRET signal, replicates)",[2]; Concentration 2.50E-06 M,5.05 and 5.03 and 4.81 and 5.42 and 6.45
same,"Dose-Response Curve Data (NanoBRET signal, replicates)",[2]; Concentration 5.00E-06 M,4.80 and 4.70 and 5.14 and 6.28 and 5.58
same,"Dose-Response Curve Data (NanoBRET signal, replicates)",[2]; Concentration 6.25E-07 M,5.77 and 5.39 and 5.91 and 7.06 and 6.32
same,"NanoBRET binding, result in words",[2],improving from the IC50 of UM_228 by one order of magnitude
same,inhibition at 1 µM,[2]; [5],49.9%
same,inhibition at 10 µM,[2]; [6],79.1%
Cc1ccc(C)c(OCc2nc(-c3cccnn3)no2)c1C [UM_245],aqueous solubility,[3],poor aqueous solubility
"O=c1[nH]c2ccccc2n1CCCSc1nnc2c(n1)[nH]c1ccccc12 [UM_037, 1-(3-5H-[1,2, 4]triazino [5,6-b]indol-3-ylsulfanylpropyl)-2,3-dihydro-1H-1,3-benzodiazol-2-one]","Avg. Normalized % Inhibition, 10uM, ADP Kinase Glo",[4]; [7],minimal inhibitory activity
same,"Dose-Response Curve Data (NanoBRET signal, replicates)","[2]; Concentration 1.20E-05 M, listed as UM37",6.25 and 6.50 and 6.41
same,"Dose-Response Curve Data (NanoBRET signal, replicates)","[2]; Concentration 1.50E-06 M, listed as UM37",7.94 and 8.66 and 7.96
same,"Dose-Response Curve Data (NanoBRET signal, replicates)","[2]; Concentration 1.88E-07 M, listed as UM37",8.18 and 8.37 and 8.94
same,"Dose-Response Curve Data (NanoBRET signal, replicates)","[2]; Concentration 2.40E-05 M, listed as UM37",4.85 and 4.94 and 5.59
same,"Dose-Response Curve Data (NanoBRET signal, replicates)","[2]; Concentration 3.00E-06 M, listed as UM37",8.21 (2×) and 8.11
same,"Dose-Response Curve Data (NanoBRET signal, replicates)","[2]; Concentration 3.75E-07 M, listed as UM37",8.11 and 8.67 and 8.63
same,"Dose-Response Curve Data (NanoBRET signal, replicates)","[2]; Concentration 6.00E-06 M, listed as UM37",7.28 and 7.38 and 7.80
same,"Dose-Response Curve Data (NanoBRET signal, replicates)","[2]; Concentration 7.50E-07 M, listed as UM37",8.16 and 8.66 and 8.74
COc1ccc(C(=O)/C=C/c2n[nH]c3cc(C(=O)O)ccc23)c(F)c1 [UM_020],"Avg. Normalized % Inhibition, 10uM, ADP Kinase Glo",[4]; [7],Negligible
same,inhibition at 1 µM,[2]; [5],0%
same,inhibition at 10 µM,[2]; [6],0%
COc1ccccc1CNc1ncnc2sc(C(=O)O)c(C)c12 [UM_035],"Avg. Normalized % Inhibition, 10uM, ADP Kinase Glo",[4]; [7],75.66%
same,inhibition at 1 µM,[2]; [5],0%
same,inhibition at 10 µM,[2]; [6],13.6%
CC(C)c1ccc(NS(=O)(=O)c2cc(-c3ccc(=O)[nH]n3)ccc2Cl)cc1 [UM_029],"Avg. Normalized % Inhibition, 10uM, ADP Kinase Glo",[4]; [7],81.53%
same,inhibition at 1 µM,[2]; [5],0%
same,inhibition at 10 µM,[2]; [6],52%
O=C(O)c1ccc(F)c(S(=O)(=O)Nc2ccc(-c3cnco3)cc2)c1 [UM_021],inhibition at 10 µM,[4]; [7],33.3%
same,inhibition at 1 µM,[2]; [5],0%
same,inhibition at 10 µM,[2]; [6],0%
O=C1NC(=O)C(=Cc2ccc(Sc3nc4ccccc4[nH]3)o2)C(=O)N1 [UM_036],inhibition at 10 µM,[4],39.2%
same,inhibition at 1 µM,"[2]; HEK293, read-out: Avg. Normalized % Inhibition, 1uM, Nanobret",2.83%
same,inhibition at 10 µM,"[2]; HEK293, read-out: Avg. Normalized % Inhibition, 10uM, Nanobret",16.8%
CC(C)(CC(=O)Nc1ccc(Oc2ccnc3ccccc23)c(F)c1)C(=O)O [UM_026],"Avg. Normalized % Inhibition, 10uM, ADP Kinase Glo",[4]; [7],76.56%
same,inhibition at 1 µM,[2]; [5],0%
same,inhibition at 10 µM,[2]; [6],0%
O=C(O)c1n[nH]c2c1CN(C(=O)c1ccc(N3CCOCC3)cc1)CC2 [UM_030],"Avg. Normalized % Inhibition, 10uM, ADP Kinase Glo",[4]; [7],Negligible
same,inhibition at 1 µM,[2]; [5],0%
same,inhibition at 10 µM,[2]; [6],11.3%
Cc1ccccc1CN1CCC(CNc2ncnc3sc(C(=O)O)c(C)c23)CC1 [UM_027],inhibition at 10 µM,[4]; [7],63.9%
same,inhibition at 1 µM,[2]; [5],7.16%
same,inhibition at 10 µM,[2]; [6],23%
